How the values were obtained:
Type in all cases: biochemical
[1] = molecular target: T1, JAK2 (Homo sapiens, UniProt O60674); test: JAK kinase assay (HTRF, phosphorylation of synthetic peptide), JAK2; details: catalytic domain, ATP at Km (4 μM); read-out: JAK2 kinase inhibitory activity (EC50)
T1 construct: All four purified enzymes contain only the catalytic domain; His (N); purchased Carna Biosciences, Inc; host or cells: baculovirus expression system
Summary of the method: (§1)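 Catalytic-domain human JAK1 (GST-tagged, aa 850-1154) or His-tagged JAK2, baculovirus-expressed, phosphorylated 1 µM biotinylated TK peptide at Km ATP (JAK1 7 µM, 10 mM MgCl2, 50 nM SEB; JAK2 4 µM, 5 mM MgCl2) in pH 7.0 Hepes, 20-30 min RT. EDTA stop; overnight streptavidin-XL665/cryptate HTRF read.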

[2] = molecular target: T2, JAK3 (Homo sapiens, UniProt P52333); test: JAK kinase assay (HTRF, phosphorylation of synthetic peptide), JAK3; details: catalytic domain, ATP at Km (2 μM); read-out: JAK3 kinase inhibitory activity (EC50)
T2 construct: All four purified enzymes contain only the catalytic domain; His (N); purchased Carna Biosciences, Inc; host or cells: baculovirus expression system

[3] = molecular target: T3, JAK1 (Homo sapiens, UniProt P23458); test: JAK kinase assay (HTRF, phosphorylation of synthetic peptide), JAK1; details: catalytic domain, ATP at Km (7 μM); read-out: JAK1 kinase inhibitory activity (EC50)
T3 construct: JAK1 (aa 850-1154) and TYK2 (aa 871-1187) are expressed with an N-terminally fused GST-tag; GST (N); purchased Carna Biosciences, Inc; host or cells: baculovirus expression system
Summary of the method: as §1

[4] = molecular target: T4, TYK2 (Homo sapiens, UniProt P29597); test: JAK kinase assay (HTRF, phosphorylation of synthetic peptide), TYK2; details: catalytic domain, ATP at Km (13 μM); read-out: TYK2 kinase inhibitory activity (EC50)
T4 construct: JAK1 (aa 850-1154) and TYK2 (aa 871-1187) are expressed with an N-terminally fused GST-tag; GST (N); purchased Carna Biosciences, Inc; host or cells: baculovirus expression system
T4 sequence (P29597 871-1187): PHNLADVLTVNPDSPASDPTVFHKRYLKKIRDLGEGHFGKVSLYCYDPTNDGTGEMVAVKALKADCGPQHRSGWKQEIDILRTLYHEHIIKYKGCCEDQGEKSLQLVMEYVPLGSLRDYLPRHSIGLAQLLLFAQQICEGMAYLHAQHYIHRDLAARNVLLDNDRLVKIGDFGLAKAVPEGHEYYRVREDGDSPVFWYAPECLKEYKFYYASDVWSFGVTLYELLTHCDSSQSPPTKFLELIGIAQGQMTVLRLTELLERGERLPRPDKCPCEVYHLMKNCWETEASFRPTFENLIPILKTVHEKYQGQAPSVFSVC
Summary of the method: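 1 µM biotinylated TK peptide at Km ATP in pH 7.0 Hepes, 20-30 min RT. EDTA stop; overnight streptavidin-XL665/cryptate HTRF read.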

T3 sequence (P23458 850-1154): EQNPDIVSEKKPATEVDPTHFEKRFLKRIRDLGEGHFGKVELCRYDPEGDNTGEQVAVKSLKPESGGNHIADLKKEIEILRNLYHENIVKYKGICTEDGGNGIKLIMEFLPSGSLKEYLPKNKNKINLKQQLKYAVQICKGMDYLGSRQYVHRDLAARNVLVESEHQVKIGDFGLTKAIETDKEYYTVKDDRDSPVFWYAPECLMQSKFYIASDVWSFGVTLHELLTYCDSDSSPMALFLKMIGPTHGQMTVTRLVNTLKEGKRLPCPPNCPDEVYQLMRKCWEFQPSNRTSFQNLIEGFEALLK
T1 sequence (O60674 849-1124 limits assumed): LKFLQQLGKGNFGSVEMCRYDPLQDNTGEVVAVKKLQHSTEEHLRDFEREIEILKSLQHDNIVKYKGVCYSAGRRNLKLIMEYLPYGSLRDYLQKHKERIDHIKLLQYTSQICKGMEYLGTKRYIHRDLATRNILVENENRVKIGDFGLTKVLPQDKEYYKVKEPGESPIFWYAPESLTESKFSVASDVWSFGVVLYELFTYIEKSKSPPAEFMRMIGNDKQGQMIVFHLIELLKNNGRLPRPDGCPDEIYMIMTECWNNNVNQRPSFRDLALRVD
T2 sequence (P52333 822-1111 limits assumed): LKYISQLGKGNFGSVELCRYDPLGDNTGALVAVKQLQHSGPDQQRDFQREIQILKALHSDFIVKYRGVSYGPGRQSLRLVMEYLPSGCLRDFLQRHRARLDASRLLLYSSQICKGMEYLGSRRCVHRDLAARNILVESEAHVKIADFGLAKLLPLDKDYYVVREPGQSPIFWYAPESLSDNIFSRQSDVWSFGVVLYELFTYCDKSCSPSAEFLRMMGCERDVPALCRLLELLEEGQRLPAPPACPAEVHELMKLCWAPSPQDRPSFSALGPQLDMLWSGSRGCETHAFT

SMILES	EC50 [1] [nM]	EC50 [2] [nM]	EC50 [3] [nM]	EC50 [4] [nM]
COC(=O)CN(C)S(=O)(=O)N1CCN(c2ncnc3[nH]ccc23)CC12CC2 [Example 34, {Methyl-[7-(7H-pyrrolo[2,3-d]pyrimidin-4-yl)-4,7-diaza-spiro[2.5]octane-4-sulfonyl]-amino}-acetic acid methyl ester]	< 100	< 100	< 100	100 to 500
CN(CCC1CC1)S(=O)(=O)N1CCN(c2ncnc3[nH]ccc23)CC12CC2 [Example 82, N-(2-cyclopropylethyl)-N-methyl-5-(7H-pyrrolo[2,3-d]pyrimidin-4-yl)-5,8-diazaspiro[2.5]octane-8-sulfonamide]	< 100	< 100	< 100	< 100
CN(CC1CCCN(C(=O)CCC#N)C1)S(=O)(=O)N1CCN(c2ncnc3[nH]ccc23)CC12CC2 (stereo not drawn) [Example 153, N-[[1-(3-cyanopropanoyl)-3-piperidyl]methyl]-N-methyl-5-(7H-pyrrolo[2,3-d]pyrimidin-4-yl)-5,8-diazaspiro[2.5]octane-8-sulfonamide]	< 100	100 to 500	< 100	> 500
CN(Cc1ccc(S(N)(=O)=O)cc1)S(=O)(=O)N1CCN(c2ncnc3[nH]ccc23)CC12CC2 [Example 91, N-methyl-5-(7H-pyrrolo[2,3-d]pyrimidin-4-yl)-N-[(4-sulfamoylphenyl)methyl]-5,8-diazaspiro[2.5]octane-8-sulfonamide]	< 100	< 100	< 100	< 100
O=S(=O)(NCCc1ccccc1)N1CCN(c2ncnc3[nH]ccc23)CC12CC2 [Int 5]	< 100	100 to 500	< 100	> 500
CN(C1COC1)S(=O)(=O)N1CCN(c2ncnc3[nH]ccc23)CC12CC2 [Example 112, N-methyl-N-(oxetan-3-yl)-5-(7H-pyrrolo[2,3-d]pyrimidin-4-yl)-5,8-diazaspiro[2.5]octane-8-sulfonamide]	< 100	< 100	< 100	100 to 500
CC(=O)N(CC1CCS(=O)(=O)CC1)S(=O)(=O)N1CCN(c2ncnc3[nH]ccc23)CC12CC2 [Example 173, N-[(1,1-dioxothian-4-yl)methyl]-N-[[5-(7H-pyrrolo[2,3-d]pyrimidin-4-yl)-5,8-diazaspiro[2.5]octan-8-yl]sulfonyl]acetamide]	< 100	< 100	< 100	100 to 500
COCCN(C1CCC1)S(=O)(=O)N1CCN(c2ncnc3[nH]ccc23)CC12CC2 [Example 103, N-cyclobutyl-N-(2-methoxyethyl)-5-(7H-pyrrolo[2,3-d]pyrimidin-4-yl)-5,8-diazaspiro[2.5]octane-8-sulfonamide]	< 100	100 to 500	< 100	100 to 500
C=C1CCC(CN(C)S(=O)(=O)N2CCN(c3ncnc4[nH]ccc34)CC23CC3)CC1 [Example 87, N-methyl-N-[(4-methylenecyclohexyl)methyl]-5-(7H-pyrrolo[2,3-d]pyrimidin-4-yl)-5,8-diazaspiro[2.5]octane-8-sulfonamide]	< 100	< 100	< 100	100 to 500
N#CCN(C1CCC1)S(=O)(=O)N1CCN(c2ncnc3[nH]ccc23)CC12CC2 [Example 100, N-(cyanomethyl)-N-cyclobutyl-5-(7H-pyrrolo[2,3-d]pyrimidin-4-yl)-5,8-diazaspiro[2.5]octane-8-sulfonamide]	< 100	< 100	< 100	< 100
CN(CCc1cccc(F)c1)S(=O)(=O)N1CCN(c2ncnc3[nH]ccc23)CC12CC2 [Example 17, 7-(7H-Pyrrolo[2,3-d]pyrimidin-4-yl)-4,7-diaza-spiro[2.5]octane-4-sulfonic acid [2-(3-fluoro-phenyl)-ethyl]-methyl-amide]	< 100	< 100	< 100	< 100
O=S(=O)(NOCc1ccccc1)N1CCN(c2ncnc3[nH]ccc23)CC12CC2 [Int 46]	< 100	100 to 500	< 100	100 to 500
CN(CCOc1ccccc1C#N)S(=O)(=O)N1CCN(c2ncnc3[nH]ccc23)CC12CC2 [Example 70, N-[2-(2-cyanophenoxy)ethyl]-N-methyl-5-(7H-pyrrolo[2,3-d]pyrimidin-4-yl)-5,8-diazaspiro[2.5]octane-8-sulfonamide]	< 100	100 to 500	< 100	> 500
CCCN(CCc1ccccc1)S(=O)(=O)N1CCN(c2ncnc3[nH]ccc23)CC12CC2 [Example 7, 7-(7H-Pyrrolo[2,3-d]pyrimidin-4-yl)-4,7-diaza-spiro[2.5]octane-4-sulfonic acid phenethyl-propyl-amide]	< 100	100 to 500	< 100	> 500
N#CCCCN(CCO)S(=O)(=O)N1CCN(c2ncnc3[nH]ccc23)CC12CC2 [Example 110, N-(3-cyanopropyl)-N-(2-hydroxyethyl)-5-(7H-pyrrolo[2,3-d]pyrimidin-4-yl)-5,8-diazaspiro[2.5]octane-8-sulfonamide]	< 100	< 100	< 100	100 to 500
CC#CCN(CCc1ccccc1)S(=O)(=O)N1CCN(c2ncnc3[nH]ccc23)CC12CC2 [Example 23, 7-(7H-Pyrrolo[2,3-d]pyrimidin-4-yl)-4,7-diaza-spiro[2.5]octane-4-sulfonic acid but-2-ynyl-phenethyl-amide]	< 100	100 to 500	< 100	> 500
CN(C1CC1)S(=O)(=O)N1CCN(c2ncnc3[nH]ccc23)CC12CC2 [Example 141, N-cyclopropyl-N-methyl-5-(7H-pyrrolo[2,3-d]pyrimidin-4-yl)-5,8-diazaspiro[2.5]octane-8-sulfonamide]	< 100	100 to 500	< 100	100 to 500
CN(CCCc1ccc(C#N)cc1)S(=O)(=O)N1CCN(c2ncnc3[nH]ccc23)CC12CC2 [Example 29, 7-(7H-Pyrrolo[2,3-d]pyrimidin-4-yl)-4,7-diaza-spiro[2.5]octane-4-sulfonic acid [3-(4-cyano-phenyl)-propyl]-methyl-amide]	< 100	100 to 500	< 100	> 500
CN(Cc1ccccc1F)S(=O)(=O)N1CCN(c2ncnc3[nH]ccc23)CC12CC2 [Example 77, N-[(2-fluorophenyl)methyl]-N-methyl-5-(7H-pyrrolo[2,3-d]pyrimidin-4-yl)-5,8-diazaspiro[2.5]octane-8-sulfonamide]	< 100	100 to 500	< 100	100 to 500
CN(CC1CCCN(S(C)(=O)=O)C1)S(=O)(=O)N1CCN(c2ncnc3[nH]ccc23)CC12CC2 (stereo not drawn) [Example 160, N-methyl-N-[(1-methylsulfonyl-3-piperidyl)methyl]-5-(7H-pyrrolo[2,3-d]pyrimidin-4-yl)-5,8-diazaspiro[2.5]octane-8-sulfonamide]	< 100	< 100	< 100	100 to 500
CCCS(=O)(=O)N1CCC(CN(C)S(=O)(=O)N2CCN(c3ncnc4[nH]ccc34)CC23CC3)C1 (stereo not drawn) [Example 118, N-methyl-N-[(1-propylsulfonylpyrrolidin-3-yl)methyl]-5-(7H-pyrrolo[2,3-d]pyrimidin-4-yl)-5,8-diazaspiro[2.5]octane-8-sulfonamide]	< 100	< 100	< 100	100 to 500
CNS(=O)(=O)N1CCN(c2ncnc3[nH]ccc23)CC12CC2 [Int 3]	< 100	< 100	< 100	100 to 500
O=S(=O)(N(CCc1ccccc1)CC1CCCCO1)N1CCN(c2ncnc3[nH]ccc23)CC12CC2 (stereo not drawn) [Example 21, 7-(7H-Pyrrolo[2,3-d]pyrimidin-4-yl)-4,7-diaza-spiro[2.5]octane-4-sulfonic acid phenethyl-(tetrahydro-pyran-2-ylmethyl)-amide]	< 100	100 to 500	< 100	> 500
CC(O)CC(=O)N1CCC(CN(C)S(=O)(=O)N2CCN(c3ncnc4[nH]ccc34)CC23CC3)C1 (stereo not drawn) [Example 124, N-[[1-(3-hydroxybutanoyl)pyrrolidin-3-yl]methyl]-N-methyl-5-(7H-pyrrolo[2,3-d]pyrimidin-4-yl)-5,8-diazaspiro[2.5]octane-8-sulfonamide]	< 100	100 to 500	< 100	> 500

Source: patent US9233964B2, “Sulfamide piperazine derivatives as protein tyrosine kinase inhibitors and pharmaceutical use therof” (LEO PHARMA A/S, priority 2011, dated 2016)
